Data published in patent US12527753B2, “Cysteamine for the treatment, mitigation and prevention of coronaviral, e.g., SARS-CoV-2, infections” (The Regents of the University of Michigan, priority 2020, dated 2026).

Tested on: SARS-CoV-2 Variants Alpha, Beta, Gamma and Delta
Test: In vitro activity against SARS-CoV-2 variants (pooled statements)

## 2-aminoethanethiol [cysteamine]
10 mM solution, contingent on time of exposure and concentration
  inactivation of the virus in tissue culture: 85-100%
10 mM, 15-90 minutes exposure
  inactivation of the variants: near complete inactivation
